From US11214803B2, “Modulators of YAP1 expression” (Ionis Pharmaceuticals, Inc., priority 2019, dated 2022)
Strand notation (5' to 3'): a small letter for the sugar, then the base; units joined by * are phosphorothioate-linked, units joined directly phosphodiester-linked; [ ] holds rarer units or linkages, { } end groups; capitals alone tell only the bases. e = 2'-O-(2-methoxyethyl) (MOE); k = constrained ethyl (cEt); [5mC] = 5-methylcytosine; d = 2'-deoxy (DNA); m = 2'-O-methyl

System: Yap1 mRNA
Experiment: Antisense inhibition of human Yap1 in SNU-449 cells by modified oligonucleotides, single dose (Example 5, RTS36584)
Format: cell-based
Settings: Table 39; SNU-449 cells, 10,000 cells per well, free uptake, 2,000 nM oligonucleotide, approx. 48 hours; RTS36584; normalized to RIBOGREEN; Yap1 mRNA relative to untreated control
Outline: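 Each modified oligonucleotide is applied by free uptake to SNU-449 cultures at 2,000 nM, and total RNA is harvested around 48 h later. Yap1 transcript, quantified with the RTS36584 set and corrected for RIBOGREEN RNA content, is given as % UTC. Asterisks mark sequences overlapping the amplicon.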

First: 1198433 (kG*dT*dA*dA*dT*dA*dT*dT*dG*d[5mC]*dA*kA*eT*k[5mC]*eT*kG) [Compound 1198433]
Second: 1198414 (kA*dT*dT*dT*dA*dG*dG*dA*dT*dG*d[5mC]*kA*eT*kG*eG*kT) [Compound 1198414]
The “YAP1 (% UTC)” value of the first is higher: 36 % UTC for the first, 20 % UTC for the second.

Compared with “1198423 (kT*d[5mC]*dT*dT*dA*dT*dA*dT*dG*dG*dT*kT*eT*kT*eG*kT) [Compound 1198423]”, “1198389 (kG*dG*dT*dA*dT*dA*dA*d[5mC]*dT*dG*dG*kG*e[5mC]*kA*eA*kA; antisense) [Compound 1198389]” is higher in “YAP1 (% UTC)” value: 10 % UTC for the first, 28 % UTC for the second.

“1198380 (kA*dG*dA*dG*dT*dA*dT*dG*dT*dG*dG*k[5mC]*eA*kA*eT*kA; antisense) [Compound 1198380]” was tested, and the “YAP1 (% UTC)” value was 18 % UTC.

Same assay, conditions: Table 40 (separate experiment); SNU-449 cells, 10,000 cells per well, free uptake, 2,000 nM oligonucleotide, approx. 48 hours; RTS36584; normalized to RIBOGREEN; Yap1 mRNA relative to untreated control

First: 1198761 (kT*eT*kT*dA*dG*dG*dA*dT*dG*d[5mC]*dA*dT*eG*eG*kT*kT; antisense) [Compound 1198761]
Second: 1198718 (kG*eA*kA*dA*dT*dT*dG*dT*d[5mC]*dT*d[5mC]*dA*eT*eG*k[5mC]*k[5mC]; antisense) [Compound 1198718]
The “YAP1 (% UTC)” value of the first is higher: 42 % UTC for the first, 9 % UTC for the second.

“1198724 (kA*eG*kA*dG*dT*dA*dT*dG*dT*dG*dG*d[5mC]*eA*eA*kT*kA; antisense) [Compound 1198724]” was tested, and the “YAP1 (% UTC)” value was 16 % UTC.

Same assay, conditions: Table 41; SNU-449 cells, 10,000 cells per well, free uptake, 2,000 nM modified oligonucleotide, approximately 48 hours; RTS36584; normalized to RIBOGREEN; Yap1 mRNA relative to untreated control cells

First: 1198663 (antisense k[5mC]*kT*dT*dT*dG*dG*dA*dA*dG*dA*dT*d[5mC]*kT*eG*kA*eA) [Compound 1198663]
Second: 1198661 (antisense kT*kT*dG*dG*dA*dA*dG*dA*dT*d[5mC]*dT*dG*kA*eA*kA*e[5mC]) [Compound 1198661]
The “YAP1 (% UTC)” value of the first is lower: 76 % UTC for the first, 111 % UTC for the second.

Same assay, conditions: Table 42 (separate experiment); SNU-449 cells, 10,000 cells per well, free uptake, 2,000 nM modified oligonucleotide, approximately 48 hours; RTS36584; normalized to RIBOGREEN; Yap1 mRNA relative to untreated control cells

First: 1198236 (kG*kT*dG*d[5mC]*dT*dT*dT*dG*dG*dA*dA*eG*eA*eT*k[5mC]*kT) [Compound 1198236]
Second: 1198237 (AGTGCTTTGGAAGATC; chemistry not fully specified) [Compound 1198237]
The “YAP1 (% UTC)” value of the first is lower: 24 % UTC for the first, 51 % UTC for the second.

First: 1198239 (kA*kG*dG*dA*dT*dG*d[5mC]*dA*dT*dG*dG*eT*eT*eT*kT*kT) [Compound 1198239]
Second: 1095463 (antisense kA*k[5mC]*dT*dG*dA*dG*dG*dT*dA*dT*dA*dA*k[5mC]*eT*kG*eG) [Compound 1095463]
The “YAP1 (% UTC)” value of the first is higher: 39 % UTC for the first, 37 % UTC for the second.

Same assay, conditions: Table 43 experiment; SNU-449 cells, 10,000 cells per well, free uptake, 2,000 nM, approximately 48 hours; RTS36584; Yap1 mRNA normalized to RIBOGREEN, relative to untreated control cells

For “1198256 (kG*kA*d[5mC]*dA*dA*d[5mC]*dT*d[5mC]*dT*dT*dA*eT*eA*eT*kG*kG; antisense) [Compound 1198256]”, the “YAP1 (% UTC)” value was 78 % UTC.

Same assay, conditions: Table 44 experiment; SNU-449 cells, 10,000 cells per well, free uptake, 2,000 nM, approximately 48 hours; RTS36584; Yap1 mRNA normalized to RIBOGREEN, relative to untreated control cells

In the case of “1198489 (antisense kT*kT*dG*dG*dA*dA*dG*dA*dT*d[5mC]*dT*eG*kA*eA*kA*e[5mC]) [Compound 1198489]”, the “YAP1 (% UTC)” value is reported as 50 % UTC.

Same assay, conditions: Table 45; Yap1 mRNA as percent of untreated control, SNU-449 cells, single dose

Compared with “1198931 (kA*kG*dG*dA*dT*dG*d[5mC]*dA*dT*dG*dG*kT*dT*kT*dT*kT; antisense) [Compound 1198931]”, “1198953 (kG*kT*dA*dA*dT*dA*dT*dT*dG*d[5mC]*dA*kA*dT*k[5mC]*dT*kG; antisense) [Compound 1198953]” is higher in “YAP1 (% UTC)” value: 47 % UTC for the first, 58 % UTC for the second.

Going from “1198913 (kT*kT*dA*d[5mC]*dA*dT*dT*dA*dG*dG*dA*kA*d[5mC]*kA*dA*kG; antisense) [Compound 1198913]” to “1198912 (kA*kA*d[5mC]*dA*d[5mC]*dT*dG*dA*dG*dG*dT*kA*dT*kA*dA*k[5mC]; antisense) [Compound 1198912]”, the “YAP1 (% UTC)” value falls from 86 % UTC to 78 % UTC.

Going from “1198937 (k[5mC]*kA*dG*dA*dT*dT*dT*dA*dG*dG*dA*kT*dG*k[5mC]*dA*kT; antisense) [Compound 1198937]” to “1198893 (kA*kA*dA*dT*dT*dG*dT*d[5mC]*dT*d[5mC]*dA*kT*dG*k[5mC]*d[5mC]*kT; antisense) [Compound 1198893]”, the “YAP1 (% UTC)” value rises from 48 % UTC to 58 % UTC.

Same assay, conditions: Table 46; Yap1 mRNA as percent of untreated control, SNU-449 cells, single dose

Going from “1198816 (antisense kT*kT*dA*dG*dA*dG*dT*dA*dT*dG*dT*kG*eG*k[5mC]*eA*kA) [Compound 1198816]” to “1198828 (kT*kT*dT*dT*dA*d[5mC]*dA*dT*dT*dA*dG*kG*eA*kA*e[5mC]*kA; antisense) [Compound 1198828]”, the “YAP1 (% UT)” value rises from 27 % UT to 59 % UT.

With “1198814 (antisense kA*kG*dA*dG*dT*dA*dT*dG*dT*dG*dG*k[5mC]*eA*kA*eT*kA) [Compound 1198814]” the “YAP1 (% UT)” value was 13 % UT.

Same assay, conditions: Table 48; Yap1 mRNA level relative to untreated control; modified oligonucleotides targeting SEQ ID NO.: 1 and 2

Going from “1198290 (kT*kG*kG*dA*dA*dA*dT*dT*dG*dT*d[5mC]*dT*k[5mC]*eA*kT*eG; antisense) [Compound 1198290]” to “1197213 (antisense kT*kG*kT*dA*dT*dG*dT*d[5mC]*dA*dG*dA*dA*dG*kA*kG*kT) [Compound 1197213]”, the “YAP1 (% UT)” value falls from 15 % UT to 5 % UT.

Compared with “1198292 (kA*kT*kA*dT*dG*dG*dA*dA*dA*dT*dT*dG*kT*e[5mC]*kT*e[5mC]; antisense) [Compound 1198292]”, “1198284 (kT*kG*kT*d[5mC]*dT*d[5mC]*dA*dT*dG*d[5mC]*d[5mC]*dT*kT*eA*kT*eA; antisense) [Compound 1198284]” is lower in “YAP1 (% UT)” value: 58 % UT for the first, 27 % UT for the second.

Same assay, conditions: Table 50; Yap1 mRNA remaining as percent of untreated control (UT), SNU-449 cells, single dose

First: 1198616 (antisense kT*kT*kT*dA*dA*dA*dG*dT*dG*dT*dA*dT*kG*kT*k[5mC]*eA) [Compound 1198616]
Second: 1198564 (antisense kA*kA*k[5mC]*dA*d[5mC]*dT*dG*dA*dG*dG*dT*dA*kT*kA*kA*e[5mC]) [Compound 1198564]
The “YAP1 (% UT)” value of the first is lower: 16 % UT for the first, 44 % UT for the second.

Compared with “1198592 (antisense kA*kT*kA*dT*dG*dG*dT*dT*dT*dT*dG*dT*kG*kT*kG*eT) [Compound 1198592]”, “1197228 (antisense kA*kA*kT*dT*mG*dT*d[5mC]*dT*d[5mC]*dA*dT*dG*d[5mC]*k[5mC]*kT*kT) [Compound 1197228]” is lower in “YAP1 (% UT)” value: 50 % UT for the first, 25 % UT for the second.

First: 1198607 (antisense kA*kT*kG*dT*dA*dA*dT*dA*dT*dT*dG*d[5mC]*kA*kA*kT*e[5mC]) [Compound 1198607]
Second: 1198625 (kG*kA*k[5mC]*dT*dA*dA*dG*dT*dA*dA*dG*dG*kT*kT*kT*e[5mC]; antisense) [Compound 1198625]
The “YAP1 (% UT)” value of the first is higher: 77 % UT for the first, 64 % UT for the second.

Same assay, conditions: Table 51; Yap1 mRNA remaining as percent of untreated control (UT), SNU-449 cells, single dose

“1197240 (antisense k[5mC]*kT*kG*dA*mG*dG*dT*dA*dT*dA*dA*d[5mC]*dT*kG*kG*kG) [Compound 1197240]” was tested, and the “YAP1 (% UT)” value was 58 % UT.

Same assay, conditions: Table 52; Yap1 mRNA, modified oligonucleotides targeting SEQ ID NO: 1 and 2

Going from “1200870 (kA*k[5mC]*kT*dA*dA*mG*dT*dA*dA*dG*dG*dT*dT*kT*k[5mC]*k[5mC]; antisense) [Compound 1200870]” to “1200833 (kG*kA*kT*dT*dT*mA*dG*dG*dA*dT*dG*d[5mC]*dA*kT*kG*kG; antisense) [Compound 1200833]”, the “YAP1 (% UT)” value falls from 73 % UT to 31 % UT.

Going from “1200852 (kT*kG*kT*dA*dA*mU*dA*dT*dT*dG*d[5mC]*dA*dA*kT*k[5mC]*kT; antisense) [Compound 1200852]” to “1200825 (kT*kG*k[5mC]*dT*dT*mU*dG*dG*dA*dA*dG*dA*dT*k[5mC]*kT*kG; antisense) [Compound 1200825]”, the “YAP1 (% UT)” value rises from 32 % UT to 39 % UT.

In the case of “1200845 (k[5mC]*kA*kA*d[5mC]*dT*mC*dT*dT*dA*dT*dA*dT*dG*kG*kT*kT; antisense) [Compound 1200845]”, the “YAP1 (% UT)” value is reported as 100 % UT.

Same assay, conditions: Yap1 mRNA, percent of untreated control; modified oligonucleotides targeting SEQ ID NO: 1 and 2; Table 47

Going from “1197208 (antisense kT*kA*kA*dT*dA*dT*dT*dG*d[5mC]*dA*dA*dT*d[5mC]*kT*kG*kT) [Compound 1197208]” to “1197176 (antisense kT*kG*kT*d[5mC]*dT*d[5mC]*dA*dT*dG*d[5mC]*d[5mC]*dT*dT*kA*kT*kA) [Compound 1197176]”, the “YAP1 (% UT)” value falls from 66 % UT to 17 % UT.

Compared with “1197185 (antisense kA*kA*kG*d[5mC]*dA*d[5mC]*dT*dT*dT*dT*dA*d[5mC]*dA*kT*kT*kA) [Compound 1197185]”, “1009327 (kA*kT*kA*dT*dT*dA*dG*dA*dG*dT*dA*dT*dG*kT*kG*kG; antisense) [Compound 1009327]” is lower in “YAP1 (% UT)” value: 55 % UT for the first, 27 % UT for the second.

With “1009394 (kT*kA*kT*dA*dA*d[5mC]*dT*dG*dG*dG*d[5mC]*dA*dA*kA*kT*kT; antisense) [Compound 1009394]” the “YAP1 (% UT)” value was 73 % UT.
